Experimental data: patent US7671065B2, “Pyridine derivatives as potassium ion channel openers” (Janssen Pharmaceutica N.V., priority 2005, dated 2010)

Target: T1, KATP channels (Homo sapiens, UniProt O60706+Q14654)
T1 construct: TE671 human medulloblastoma cells were obtained from ATCC; host or cells: TE671 human medulloblastoma cells
Experiment: Potassium Channel Assay (FLIPR membrane potential dye, TE671 cells)
Format: cell-based
Details: TE671 human medulloblastoma cells, room temperature, fluorescence change monitored for 3 minutes
Procedure: TE671 human medulloblastoma cells were obtained from ATCC and grown in Dulbecco's modified Eagle's medium (DMEM) supplemented with 10% fetal bovine serum, 100 U/ml penicillin and 100 U/ml streptomycine.
The day before testing, the cells were plated in black 96-well plates at 50K/well. On the day of testing, the growth media was removed, then 100 μl of FLIPR buffer (20 mM HEPES, 120 mM NaCl, 2 mM KCl, 2 mM CaCl2, 1 mM MgCl2, 5 mM Glucose) and 100 μl of Membrane Potential Assay Dye (Molecular Devices) dissolved in FLIPR buffer were added to each well. The cells were incubated at room temperature for 15 to 30 min.
The effect of test compounds on KATP channels were evaluated on a fluorometric imaging plate reader (FLIPR, Molecular Devices) at room temperature. After a baseline period, 50 μl of 5× stock solution of test compound prepared in FLIPR buffer was added and fluorescence change was monitored for 3 minutes. After this reading, glyburide, a KATP channel blocker, was added to a final concentration of 5 μM to check the specificity of the test compound as a KATP channel opener. Hyperpolarization resulting from KATP channel opening was observed as a decrease in fluorescence intensity.
Representative compounds of the present invention were tested according to the procedure described above, with results as listed in Table 7 below.

T1 sequence (Q14654 whole entry): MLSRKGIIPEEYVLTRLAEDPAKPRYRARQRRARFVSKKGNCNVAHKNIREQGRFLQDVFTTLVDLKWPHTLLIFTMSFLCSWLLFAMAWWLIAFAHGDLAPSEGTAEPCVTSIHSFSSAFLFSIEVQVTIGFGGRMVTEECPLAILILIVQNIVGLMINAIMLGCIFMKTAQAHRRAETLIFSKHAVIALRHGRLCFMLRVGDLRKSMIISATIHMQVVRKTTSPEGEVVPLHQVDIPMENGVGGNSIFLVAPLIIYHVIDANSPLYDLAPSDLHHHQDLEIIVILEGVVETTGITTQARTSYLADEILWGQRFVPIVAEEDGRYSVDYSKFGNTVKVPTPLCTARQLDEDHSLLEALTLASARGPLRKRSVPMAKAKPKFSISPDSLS
T1 sequence (O60706 1-1549 isoform O60706-2): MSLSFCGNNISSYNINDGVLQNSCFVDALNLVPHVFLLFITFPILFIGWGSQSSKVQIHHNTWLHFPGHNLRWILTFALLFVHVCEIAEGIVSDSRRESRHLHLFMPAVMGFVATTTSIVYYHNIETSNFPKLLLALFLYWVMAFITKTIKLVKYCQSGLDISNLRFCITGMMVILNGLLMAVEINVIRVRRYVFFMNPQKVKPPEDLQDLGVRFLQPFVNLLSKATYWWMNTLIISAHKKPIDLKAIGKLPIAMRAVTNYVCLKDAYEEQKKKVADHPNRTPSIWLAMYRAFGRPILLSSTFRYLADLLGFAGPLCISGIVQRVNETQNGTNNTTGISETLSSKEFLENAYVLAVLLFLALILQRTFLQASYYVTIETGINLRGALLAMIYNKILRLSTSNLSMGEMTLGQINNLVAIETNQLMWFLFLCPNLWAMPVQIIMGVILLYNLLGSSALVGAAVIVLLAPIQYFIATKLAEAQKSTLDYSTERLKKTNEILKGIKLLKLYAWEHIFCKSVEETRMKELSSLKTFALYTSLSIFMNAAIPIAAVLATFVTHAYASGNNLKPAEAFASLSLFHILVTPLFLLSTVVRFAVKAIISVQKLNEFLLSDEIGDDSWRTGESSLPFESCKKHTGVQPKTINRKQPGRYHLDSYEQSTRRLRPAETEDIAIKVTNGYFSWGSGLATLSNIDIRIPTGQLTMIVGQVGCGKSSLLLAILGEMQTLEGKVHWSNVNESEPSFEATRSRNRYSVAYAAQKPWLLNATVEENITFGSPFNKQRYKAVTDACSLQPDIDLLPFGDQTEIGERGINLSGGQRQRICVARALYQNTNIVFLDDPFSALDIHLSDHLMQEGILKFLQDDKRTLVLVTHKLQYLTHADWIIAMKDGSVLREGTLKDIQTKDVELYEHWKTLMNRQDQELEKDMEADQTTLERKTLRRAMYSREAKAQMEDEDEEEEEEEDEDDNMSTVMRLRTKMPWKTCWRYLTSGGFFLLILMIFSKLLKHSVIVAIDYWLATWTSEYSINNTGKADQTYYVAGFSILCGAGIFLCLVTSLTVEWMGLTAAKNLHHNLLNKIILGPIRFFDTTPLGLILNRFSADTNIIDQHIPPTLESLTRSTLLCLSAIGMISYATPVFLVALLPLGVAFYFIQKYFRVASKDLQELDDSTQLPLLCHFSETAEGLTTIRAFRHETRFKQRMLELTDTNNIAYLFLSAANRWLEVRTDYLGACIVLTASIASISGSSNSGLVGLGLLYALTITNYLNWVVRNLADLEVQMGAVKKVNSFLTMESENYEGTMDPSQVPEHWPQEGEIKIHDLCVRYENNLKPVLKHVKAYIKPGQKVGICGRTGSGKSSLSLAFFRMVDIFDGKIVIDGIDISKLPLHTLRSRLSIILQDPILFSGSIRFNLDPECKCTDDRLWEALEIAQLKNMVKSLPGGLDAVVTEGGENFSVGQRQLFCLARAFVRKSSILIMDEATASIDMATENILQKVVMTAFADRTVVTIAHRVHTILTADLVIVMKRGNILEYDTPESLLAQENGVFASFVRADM

| SMILES | EC50 | % Stimulation |
| --- | --- | --- |
| CCOC(=O)c1cnc2cc(C(F)(F)F)ccc2c1-c1cc(CO)ccc1OC [Compound 14, 4-(5-Hydroxymethyl-2-methoxy-phenyl)-7-trifluoromethyl-quinoline-3-carboxylic acid ethyl ester] | 4.56 µM |  |
| CCOC(=O)c1cnc2cc(C(F)(F)F)ccc2c1-c1cc(C)cc(OC)c1 [Compound 2, 4-(3-Methoxy-5-methyl-phenyl)-7-trifluoromethyl-quinoline-3-carboxylic acid ethyl ester] | > 30 µM | 23% |
| CCOC(=O)c1ccc(-c2c(C(=O)OCC)cnc3cc(C(F)(F)F)ccc23)cc1 [Compound 4, 4-(4-Ethoxycarbonyl-phenyl)-7-trifluoromethyl-quinoline-3-carboxylic acid ethyl ester] | > 30 µM | 38% |
| N#Cc1cccc(-c2ccncc2C(O)c2ccc(F)cc2)c1 (stereo not shown) [Compound 20, 3-{3-[(4-Fluoro-phenyl)-hydroxy-methyl]-pyridin-4-yl}-benzonitrile] | 19.4 µM |  |
| Cc1ccc(C(O)c2cnccc2-c2cccc(C#N)c2)cc1F (stereo not shown) [Compound 22, 3-{3-[(3-Fluoro-4-methyl-phenyl)-hydroxy-methyl]-pyridin-4-yl}-benzonitrile] | 15.1 µM |  |
| CSc1ccc(C(O)c2cnccc2-c2cccc(C#N)c2)cc1 (stereo not shown) [Compound 34, 3-{3-[Hydroxy-(4-methylsulfanyl-phenyl)-methyl]-pyridin-4-yl}-benzonitrile] | 20.8 µM |  |
| CCOC(=O)c1cnc2cc(C(F)(F)F)ccc2c1-c1cccc(C=O)c1 [Compound 11, 4-(3-Formyl-phenyl)-7-trifluoromethyl-quinoline-3-carboxylic acid ethyl ester] | > 30 µM | 2% |
| CCOC(=O)c1cnc2cc(C(F)(F)F)ccc2c1-c1cccc(C#N)c1 [Compound 1, 4-(3-Cyano-phenyl)-7-trifluoromethyl-quinoline-3-carboxylic acid ethyl ester] | > 30 µM | 36% |
| CCOC(=O)c1cnc2cc(C(F)(F)F)ccc2c1-c1ccccc1 [Compound 6, 4-Phenyl-7-trifluoromethyl-quinoline-3-carboxylic acid ethyl ester] | > 30 µM | 42% |
| CCOC(=O)c1cnc2cc(C(F)(F)F)ccc2c1-c1cccc(CO)c1 [Compound 12, 4-(3-Hydroxymethyl-phenyl)-7-trifluoromethyl-quinoline-3-carboxylic acid ethyl ester] | > 30 µM | 20% |
| Cc1cc(C)c(C(O)c2cnccc2-c2cccc(C#N)c2)c(C)c1 (stereo not shown) [Compound 35, 3-{3-[Hydroxy-(2,4,6-trimethyl-phenyl)-methyl]-pyridin-4-yl}-benzonitrile] | > 30 µM | 37% |
| CCOC(=O)c1cnc2cc(C(F)(F)F)ccc2c1-c1cc(C(F)(F)F)cc(C(F)(F)F)c1 [Compound 3, 4-(3,5-Bis-trifluoromethyl-phenyl)-7-trifluoromethyl-quinoline-3-carboxylic acid ethyl ester] | > 30 µM | 19% |
| N#Cc1cccc(-c2ccncc2C(O)C(F)(F)F)c1 (stereo not shown) [Compound 39, 3-[3-(2,2,2-Trifluoro-1-hydroxy-ethyl)-pyridin-4-yl]-benzonitrile] | 10.5 µM |  |
| Cc1ccc(F)cc1C(O)c1cnccc1-c1cccc(C#N)c1 (stereo not shown) [Compound 38, 3-{3-[(5-Fluoro-2-methyl-phenyl)-hydroxy-methyl]-pyridin-4-yl}-benzonitrile] | > 30 µM | 63% |
| COc1ccccc1C(O)c1cnccc1-c1cccc(C#N)c1 (stereo not shown) [Compound 28, 3-{3-[Hydroxy-(2-methoxy-phenyl)-methyl]-pyridin-4-yl}-benzonitrile] | 10.2 µM |  |
| CCOC(=O)c1cnc2cc(C(F)(F)F)ccc2c1-c1cccc(C(F)(F)F)c1 [Compound 10, 7-Trifluoromethyl-4-(3-trifluoromethyl-phenyl)-quinoline-3-carboxylic acid ethyl ester] | > 30 µM | 22% |
| CCOC(=O)c1cnc2cc(C(F)(F)F)ccc2c1OS(=O)(=O)C(F)(F)F [Compound 15, 4-Trifluoromethanesulfonyloxy-7-trifluoromethyl-quinoline-3-carboxylic acid ethyl ester] | 6.27 µM |  |
| CCOC(=O)c1cnc2cc(C(F)(F)F)ccc2c1-c1cc(C=O)ccc1OC [Compound 9, 4-(5-Formyl-2-methoxy-phenyl)-7-trifluoromethyl-quinoline-3-carboxylic acid ethyl ester] | 7.73 µM |  |
| CCOC(=O)c1cnc2cc(C(F)(F)F)ccc2c1-c1cccc(C(C)=O)c1 [Compound 7, 4-(3-Acetyl-phenyl)-7-trifluoromethyl-quinoline-3-carboxylic acid ethyl ester] | > 30 µM | 2% |
| COc1ccc(C(O)c2cnccc2-c2cccc(C#N)c2)cc1 (stereo not shown) [Compound 30, 3-{3-[Hydroxy-(4-methoxy-phenyl)-methyl]-pyridin-4-yl}-benzonitrile] | > 30 µM | 7% |
| Cc1ccc(C(O)c2cnccc2-c2cccc(C#N)c2)cc1 (stereo not shown) [Compound 32, 3-{3-[Hydroxy-(4-methyl-phenyl)-methyl]-pyridin-4-yl}-benzonitrile] | 8.48 µM |  |
| COc1ccc(C(O)c2cnccc2-c2cccc(C#N)c2)cc1F (stereo not shown) [Compound 37, 3-{3-[(3-Fluoro-4-methoxy-phenyl)-hydroxy-methyl]-pyridin-4-yl}-benzonitrile] | 9.59 µM |  |
| CCOC(=O)c1cnc2cc(C(F)(F)F)ccc2c1-c1ccc(C)c(C)c1 [Compound 13, 4-(3,4-Dimethyl-phenyl)-7-trifluoromethyl-quinoline-3-carboxylic acid ethyl ester] | > 30 µM | 0% |
| COc1ccc(F)cc1C(O)c1cnccc1-c1cccc(C#N)c1 (stereo not shown) [Compound 36, 3-{3-[(5-Fluoro-2-methoxy-phenyl)-hydroxy-methyl]-pyridin-4-yl}-benzonitrile] | > 30 µM | 24% |
| N#Cc1cccc(-c2ccncc2C(O)c2ccccc2)c1 (stereo not shown) [Compound 19, 3-[3-(Hydroxy-phenyl-methyl)-pyridin-4-yl]-benzonitrile] | 9.63 µM |  |
| N#Cc1cccc(-c2ccncc2C(O)c2ccc(Cl)c(Cl)c2)c1 (stereo not shown) [Compound 24, 3-{3-[(3,4-Dichloro-phenyl)-hydroxy-methyl]-pyridin-4-yl}-benzonitrile] | 14.5 µM |  |

Next, values leading:

| EC50 | % Stimulation | SMILES |
| --- | --- | --- |
| 11.6 µM |  | COc1ccc(C(O)c2cnccc2C(=O)c2ccccc2)cc1F (stereo not shown) [Compound 45, {3-[(3-Fluoro-4-methoxy-phenyl)-hydroxy-methyl]-pyridin-4-yl}-phenyl-methanone] |
| > 30 µM | 33% | OCc1cnccc1C(O)c1ccccc1 (stereo not shown) [Compound 56, (3-Hydroxymethyl-pyridin-4-yl)-phenyl-methanol] |
| 14.3 µM |  | N#Cc1cccc(C(=O)c2ccncc2C(O)c2ccccc2)c1 (stereo not shown) [Compound 48, 3-[3-(Hydroxy-phenyl-methyl)-pyridine-4-carbonyl]-benzonitrile] |
| > 30 µM | 30% | COc1ccc(C=O)cc1-c1ccncc1C=O [Compound 53, 4-(5-Formyl-2-methoxy-phenyl)-pyridine-3-carbaldehyde] |
| > 30 µM | 34% | OC1OC(c2ccccc2)c2ccncc21 (stereo not shown) [Compound 65, 1-Phenyl-1,3-dihydro-furo[3,4-c]pyridin-3-ol] |
| 17.4 µM |  | CN(C)c1ccc(C(O)c2cnccc2C(=O)c2ccccc2)cc1 (stereo not shown) [Compound 44, {3-[(4-Dimethylamino-phenyl)-hydroxy-methyl]-pyridin-4-yl}-phenyl-methanone] |
| > 30 µM | 48% | N#Cc1cccc(-c2ccncc2C=O)c1 [Compound 51, 3-(3-Formyl-pyridin-4-yl)-benzonitrile] |
| 12.1 µM |  | COc1ccc(OC)c(C(O)c2cnccc2C(=O)c2ccccc2)c1 (stereo not shown) [Compound 46, {3-[(2,5-Dimethoxy-phenyl)-hydroxy-methyl]-pyridin-4-yl}-phenyl-methanone] |
| 7.97 µM |  | CC(C)C(O)c1cnccc1Br (stereo not shown) [Compound 63, 1-(4-Bromo-pyridin-3-yl)-2-methyl-propan-1-ol] |
| 5.09 µM |  | O=C(c1ccccc1)c1ccncc1C(O)c1cccc(F)c1 (stereo not shown) [Compound 47, {3-[(3-Fluoro-phenyl)-hydroxy-methyl]-pyridin-4-yl}-phenyl-methanone] |
| > 30 µM | 24% | N#Cc1cccc(C2OC(O)c3cnccc32)c1 (stereo not shown) [Compound 55, 3-(3-Hydroxy-1,3-dihydro-furor[3,4-c]pyridin-1-yl)-benzonitrile] |
| 26.8 µM |  | CC(O)c1cnccc1C(=O)c1ccccc1 (stereo not shown) [Compound 59, [3-(1-Hydroxy-ethyl)-pyridin-4-yl]-phenyl-methanone] |
| 8.19 µM |  | N#Cc1cccc(C2OCc3cnccc32)c1 (stereo not shown) [Compound 66, 3-(1,3-Dihydro-furor[3,4-c]pyridin-1-yl)-benzonitrile] |
| 17.2 µM |  | CC(O)c1cnccc1-c1cccc(C#N)c1 (stereo not shown) [Compound 52, 3-[3-(1-Hydroxy-ethyl)-pyridin-4-yl]-benzonitrile] |
| > 30 µM | 19% | N#Cc1cccc(-c2ccncc2CO)c1 [Compound 50, 3-(3-Hydroxymethyl-pyridin-4-yl)-benzonitrile] |
